Target: SARS-CoV-2 M^pro (Severe acute respiratory syndrome coronavirus 2, UniProt P0DTD1)
Type: biochemical

NC(=S)N/N=C/c1ccc(-c2ccc(C(=O)O)c(O)c2)o1 [F8–B6, (E)-4-(5-((2-carbamothioylhydrazono)methyl)furan-2-yl)-2-hydroxybenzoic acid]
Effect of dithiothreitol (DTT) on inhibition: reverse the inhibitory effect

— PMC9162962 (European Journal of Medicinal Chemistry, 2022)
